Experimental data as given in ChEMBL document CHEMBL5385849, “Discovery of 1-hydroxy-2-methylquinolin-4(1H)-one derivatives as new cytochrome bd oxidase inhibitors for tuberculosis therapy” (Eur J Med Chem, 2023).

Test system: Mycobacterium tuberculosis
Experiment: Inhibition of Mycobacterium tuberculosis harboring cydAB mutant inverted-membrane vesicle cytochrome bd oxidase assessed as reduction in oxygen consumption rate at 10 uM measured upto 4 days by Methylene blue dye based assay
Type: cell membranes
Conditions: time <= 4.0 day

| Structure (SMILES) | inhibition |
| --- | --- |
| Cc1c(Cc2ccc(OC(F)(F)F)cc2)c(=O)c2ccccc2n1O | 82% |
| CC(C)=CCC/C(C)=C/CC/C(C)=C/Cc1c(C)[nH]c2ccccc2c1=O [AURACHIN D] | 55% |
